Data published in ChEMBL document CHEMBL4219148, “Discovery of a highly potent orally bioavailable imidazo-[1, 2-a]pyrazine Aurora inhibitor” (Bioorg Med Chem Lett, 2018).
pEC50, pIC50, pKd: −log10 of the molar value.

Key:
[1] = biological target: Mitogen-activated protein kinase 1 (Homo sapiens, UniProt P28482); assay: Inhibition of ERK2 (unknown origin)
Aurora kinase B [2] = biological target: T1, Aurora kinase B (Homo sapiens, UniProt Q96GD4); assay: Inhibition of Aurora B in human HCT116 cells assessed as reduction in phosphorylation of Histone H3 at Ser10 residue incubated for 1 hr by Hoechst 33342 dye-based immunofluorescence microscopic method; type: cell-based
T1 sequence (Q96GD4 whole entry): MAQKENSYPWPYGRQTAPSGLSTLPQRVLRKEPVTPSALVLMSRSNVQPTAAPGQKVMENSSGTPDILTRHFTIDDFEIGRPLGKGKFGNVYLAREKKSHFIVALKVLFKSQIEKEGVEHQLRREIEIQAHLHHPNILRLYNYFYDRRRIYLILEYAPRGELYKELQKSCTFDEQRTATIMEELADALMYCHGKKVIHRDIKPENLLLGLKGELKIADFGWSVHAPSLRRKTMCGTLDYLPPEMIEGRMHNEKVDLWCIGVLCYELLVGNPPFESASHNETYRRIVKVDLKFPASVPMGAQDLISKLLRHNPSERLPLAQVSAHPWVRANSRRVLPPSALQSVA

[3] = biological target: T2, Receptor-type tyrosine-protein kinase FLT3 (Homo sapiens, UniProt P36888); assay: Inhibition of FLT3 (unknown origin)
T2 sequence (P36888 whole entry): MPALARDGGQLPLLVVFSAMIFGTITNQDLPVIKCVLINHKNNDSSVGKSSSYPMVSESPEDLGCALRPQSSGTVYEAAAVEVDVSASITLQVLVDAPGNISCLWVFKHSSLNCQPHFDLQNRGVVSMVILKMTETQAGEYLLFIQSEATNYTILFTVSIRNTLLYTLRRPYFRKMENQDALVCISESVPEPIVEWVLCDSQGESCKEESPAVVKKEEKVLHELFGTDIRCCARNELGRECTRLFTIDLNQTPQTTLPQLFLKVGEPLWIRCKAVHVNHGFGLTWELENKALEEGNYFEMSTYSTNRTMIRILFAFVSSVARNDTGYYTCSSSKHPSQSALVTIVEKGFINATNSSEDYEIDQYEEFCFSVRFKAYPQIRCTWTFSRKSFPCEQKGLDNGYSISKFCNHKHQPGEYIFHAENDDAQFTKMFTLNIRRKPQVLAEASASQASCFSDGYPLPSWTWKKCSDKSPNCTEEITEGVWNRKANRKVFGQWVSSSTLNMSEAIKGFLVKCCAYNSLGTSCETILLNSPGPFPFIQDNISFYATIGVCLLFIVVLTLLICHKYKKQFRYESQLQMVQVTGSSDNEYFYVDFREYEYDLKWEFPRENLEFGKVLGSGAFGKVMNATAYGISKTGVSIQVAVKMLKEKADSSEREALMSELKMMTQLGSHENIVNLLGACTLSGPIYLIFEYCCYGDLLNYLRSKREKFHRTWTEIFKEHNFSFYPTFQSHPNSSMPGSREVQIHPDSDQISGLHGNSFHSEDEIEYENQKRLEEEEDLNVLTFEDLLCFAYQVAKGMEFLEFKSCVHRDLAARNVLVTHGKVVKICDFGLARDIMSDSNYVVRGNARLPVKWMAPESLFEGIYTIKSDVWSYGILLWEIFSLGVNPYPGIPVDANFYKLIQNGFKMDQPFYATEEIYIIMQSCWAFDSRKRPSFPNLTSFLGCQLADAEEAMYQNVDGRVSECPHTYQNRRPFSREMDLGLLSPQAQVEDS

[4] = biological target: T3, Serine/threonine-protein kinase 3 (Homo sapiens, UniProt Q13188); assay: Inhibition of MST2 (unknown origin)
T3 sequence (Q13188 whole entry): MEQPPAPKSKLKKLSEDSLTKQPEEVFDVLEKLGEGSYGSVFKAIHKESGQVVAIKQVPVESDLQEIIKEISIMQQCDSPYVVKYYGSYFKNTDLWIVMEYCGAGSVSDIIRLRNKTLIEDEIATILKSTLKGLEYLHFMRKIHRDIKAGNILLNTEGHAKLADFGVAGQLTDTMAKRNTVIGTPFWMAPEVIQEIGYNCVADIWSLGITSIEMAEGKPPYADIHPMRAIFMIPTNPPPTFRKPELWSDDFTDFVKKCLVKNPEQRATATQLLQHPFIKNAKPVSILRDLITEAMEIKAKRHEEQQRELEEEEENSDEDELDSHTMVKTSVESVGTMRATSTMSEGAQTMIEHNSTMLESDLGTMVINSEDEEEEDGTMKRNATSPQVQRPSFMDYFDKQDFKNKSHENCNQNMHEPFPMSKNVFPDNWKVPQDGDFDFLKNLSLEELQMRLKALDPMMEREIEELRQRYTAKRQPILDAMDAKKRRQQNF

Aurora kinase A [5] = biological target: T4, Aurora kinase A (Homo sapiens, UniProt O14965); assay: Binding affinity to Aurora A (unknown origin) after 45 mins by fluorescence-based thermal stability shift assay
T4 sequence (O14965 whole entry): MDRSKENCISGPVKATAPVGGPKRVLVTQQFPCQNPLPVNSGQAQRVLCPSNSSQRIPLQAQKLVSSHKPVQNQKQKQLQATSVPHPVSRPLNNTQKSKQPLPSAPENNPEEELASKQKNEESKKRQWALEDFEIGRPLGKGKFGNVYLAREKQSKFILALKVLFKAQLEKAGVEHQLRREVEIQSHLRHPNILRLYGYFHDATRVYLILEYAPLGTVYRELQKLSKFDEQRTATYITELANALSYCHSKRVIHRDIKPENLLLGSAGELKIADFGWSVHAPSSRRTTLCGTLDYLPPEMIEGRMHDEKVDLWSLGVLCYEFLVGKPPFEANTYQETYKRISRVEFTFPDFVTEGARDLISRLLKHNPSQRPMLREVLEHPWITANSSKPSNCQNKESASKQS

[6] = biological target: RAC-alpha serine/threonine-protein kinase (Homo sapiens, UniProt P31749); assay: Inhibition of AKT1 (unknown origin)
Chain of RAC-alpha serine/threonine-protein kinase (P31749 whole entry): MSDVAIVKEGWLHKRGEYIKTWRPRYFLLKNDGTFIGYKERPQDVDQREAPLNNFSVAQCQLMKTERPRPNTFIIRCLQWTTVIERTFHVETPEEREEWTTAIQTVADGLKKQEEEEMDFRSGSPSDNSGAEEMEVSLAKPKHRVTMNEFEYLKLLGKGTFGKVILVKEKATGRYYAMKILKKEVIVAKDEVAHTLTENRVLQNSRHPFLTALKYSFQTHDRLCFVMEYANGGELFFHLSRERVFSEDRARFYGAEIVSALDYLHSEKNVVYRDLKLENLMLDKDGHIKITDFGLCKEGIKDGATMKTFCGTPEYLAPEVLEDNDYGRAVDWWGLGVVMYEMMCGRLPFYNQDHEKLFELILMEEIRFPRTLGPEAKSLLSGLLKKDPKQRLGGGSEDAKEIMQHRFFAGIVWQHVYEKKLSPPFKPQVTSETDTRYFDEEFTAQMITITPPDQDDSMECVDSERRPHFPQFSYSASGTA

[7] = Apparent permeability from apical to basolateral side in human intestinal Caco2 cells; type: ADME, cell-based; details: Caco-2
Aurora kinase A [8] = biological target: T4, Aurora kinase A; assay: Inhibition of Aurora A (unknown origin) using Tamra-PKAtide as substrate by fluorescence polarization assay
[9] = biological target: Rho-associated protein kinase 2 (Homo sapiens, UniProt O75116); assay: Inhibition of ROCK2 (unknown origin)
Chain of Rho-associated protein kinase 2 (O75116 whole entry): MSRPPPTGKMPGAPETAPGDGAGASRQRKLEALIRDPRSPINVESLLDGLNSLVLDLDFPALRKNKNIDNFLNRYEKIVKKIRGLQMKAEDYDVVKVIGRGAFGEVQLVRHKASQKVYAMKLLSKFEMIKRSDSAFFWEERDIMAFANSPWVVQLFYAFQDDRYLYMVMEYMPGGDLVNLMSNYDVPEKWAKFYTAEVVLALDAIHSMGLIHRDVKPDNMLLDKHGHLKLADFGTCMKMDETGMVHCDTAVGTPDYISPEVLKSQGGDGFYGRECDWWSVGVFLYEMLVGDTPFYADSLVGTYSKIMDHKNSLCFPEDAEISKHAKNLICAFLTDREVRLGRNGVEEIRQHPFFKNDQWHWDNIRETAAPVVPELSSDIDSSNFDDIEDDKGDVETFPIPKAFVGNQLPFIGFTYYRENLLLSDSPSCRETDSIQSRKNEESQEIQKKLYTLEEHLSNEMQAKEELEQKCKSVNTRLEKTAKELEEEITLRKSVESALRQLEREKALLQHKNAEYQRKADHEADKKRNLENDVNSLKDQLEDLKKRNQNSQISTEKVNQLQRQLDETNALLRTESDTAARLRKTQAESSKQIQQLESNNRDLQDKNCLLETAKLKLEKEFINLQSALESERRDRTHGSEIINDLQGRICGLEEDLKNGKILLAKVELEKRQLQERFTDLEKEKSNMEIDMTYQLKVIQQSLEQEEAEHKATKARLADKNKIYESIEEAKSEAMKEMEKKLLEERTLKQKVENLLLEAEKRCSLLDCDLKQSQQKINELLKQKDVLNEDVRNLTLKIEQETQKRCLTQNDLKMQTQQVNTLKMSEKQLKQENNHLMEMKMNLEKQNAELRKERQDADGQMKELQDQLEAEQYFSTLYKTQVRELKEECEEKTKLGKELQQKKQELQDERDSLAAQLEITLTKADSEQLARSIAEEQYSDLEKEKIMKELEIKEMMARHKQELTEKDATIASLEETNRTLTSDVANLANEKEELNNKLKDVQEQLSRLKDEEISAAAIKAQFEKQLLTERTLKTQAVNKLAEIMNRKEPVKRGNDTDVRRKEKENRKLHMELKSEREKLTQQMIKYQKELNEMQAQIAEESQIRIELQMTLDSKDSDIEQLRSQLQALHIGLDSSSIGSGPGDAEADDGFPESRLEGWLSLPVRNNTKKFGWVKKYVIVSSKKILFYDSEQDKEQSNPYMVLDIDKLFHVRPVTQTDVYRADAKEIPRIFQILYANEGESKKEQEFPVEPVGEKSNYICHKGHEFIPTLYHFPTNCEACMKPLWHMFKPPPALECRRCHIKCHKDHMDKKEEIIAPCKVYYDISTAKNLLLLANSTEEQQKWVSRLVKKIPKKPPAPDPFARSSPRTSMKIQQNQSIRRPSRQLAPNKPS

[10] = biological target: Tyrosine-protein kinase JAK2 (Homo sapiens, UniProt O60674); assay: Inhibition of JAK2 (unknown origin)
Chain of Tyrosine-protein kinase JAK2 (O60674 whole entry): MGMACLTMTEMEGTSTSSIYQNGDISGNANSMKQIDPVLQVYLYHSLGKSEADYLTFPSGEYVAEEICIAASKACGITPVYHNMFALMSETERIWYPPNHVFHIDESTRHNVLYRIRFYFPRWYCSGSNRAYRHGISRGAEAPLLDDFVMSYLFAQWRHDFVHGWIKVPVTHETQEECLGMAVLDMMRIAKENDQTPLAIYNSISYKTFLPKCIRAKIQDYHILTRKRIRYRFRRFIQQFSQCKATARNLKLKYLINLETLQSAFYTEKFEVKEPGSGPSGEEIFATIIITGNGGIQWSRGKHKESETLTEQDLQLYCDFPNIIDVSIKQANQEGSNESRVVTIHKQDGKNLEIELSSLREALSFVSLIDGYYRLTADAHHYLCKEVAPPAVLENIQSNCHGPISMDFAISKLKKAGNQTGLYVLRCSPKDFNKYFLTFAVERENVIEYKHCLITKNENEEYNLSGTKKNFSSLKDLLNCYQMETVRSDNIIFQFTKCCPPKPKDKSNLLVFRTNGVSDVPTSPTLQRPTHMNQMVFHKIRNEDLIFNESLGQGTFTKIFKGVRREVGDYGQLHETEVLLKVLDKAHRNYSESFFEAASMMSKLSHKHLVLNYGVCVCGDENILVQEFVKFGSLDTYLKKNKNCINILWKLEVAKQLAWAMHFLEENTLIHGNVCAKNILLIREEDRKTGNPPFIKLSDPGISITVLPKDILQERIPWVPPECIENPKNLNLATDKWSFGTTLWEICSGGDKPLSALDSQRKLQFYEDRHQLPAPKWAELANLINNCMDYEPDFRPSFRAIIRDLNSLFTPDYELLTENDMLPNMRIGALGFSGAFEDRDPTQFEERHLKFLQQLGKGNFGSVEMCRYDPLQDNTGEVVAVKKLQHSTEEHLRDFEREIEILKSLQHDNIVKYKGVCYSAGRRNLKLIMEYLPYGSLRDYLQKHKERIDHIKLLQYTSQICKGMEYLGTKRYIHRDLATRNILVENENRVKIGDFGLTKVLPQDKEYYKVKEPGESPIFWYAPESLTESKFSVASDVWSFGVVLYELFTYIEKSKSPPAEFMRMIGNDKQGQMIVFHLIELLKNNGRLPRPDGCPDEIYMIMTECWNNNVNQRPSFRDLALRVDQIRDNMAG

Aurora kinase B [11] = biological target: T1, Aurora kinase B; assay: Binding affinity to Aurora B (unknown origin) after 45 mins by fluorescence-based thermal stability shift assay
[12] = biological target: Tyrosine-protein kinase Lck (Homo sapiens, UniProt P06239); assay: Inhibition of LCK (unknown origin)
Chain of Tyrosine-protein kinase Lck (P06239 whole entry): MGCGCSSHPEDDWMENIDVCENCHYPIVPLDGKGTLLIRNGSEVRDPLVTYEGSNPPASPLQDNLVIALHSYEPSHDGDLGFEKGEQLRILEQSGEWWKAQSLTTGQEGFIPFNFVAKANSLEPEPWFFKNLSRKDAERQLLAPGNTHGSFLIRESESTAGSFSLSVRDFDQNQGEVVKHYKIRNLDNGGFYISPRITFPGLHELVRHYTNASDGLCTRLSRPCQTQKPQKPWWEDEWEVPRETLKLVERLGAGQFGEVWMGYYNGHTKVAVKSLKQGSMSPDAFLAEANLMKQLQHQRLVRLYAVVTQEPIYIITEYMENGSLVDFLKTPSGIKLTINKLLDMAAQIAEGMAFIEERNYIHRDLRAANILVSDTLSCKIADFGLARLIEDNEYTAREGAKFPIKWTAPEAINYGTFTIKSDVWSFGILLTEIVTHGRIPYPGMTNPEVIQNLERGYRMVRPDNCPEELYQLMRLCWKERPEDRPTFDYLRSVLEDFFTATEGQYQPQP

[13] = biological target: Glycogen synthase kinase-3 beta (Homo sapiens, UniProt P49841); assay: Inhibition of GSK3b (unknown origin)
Chain of Glycogen synthase kinase-3 beta (P49841 whole entry): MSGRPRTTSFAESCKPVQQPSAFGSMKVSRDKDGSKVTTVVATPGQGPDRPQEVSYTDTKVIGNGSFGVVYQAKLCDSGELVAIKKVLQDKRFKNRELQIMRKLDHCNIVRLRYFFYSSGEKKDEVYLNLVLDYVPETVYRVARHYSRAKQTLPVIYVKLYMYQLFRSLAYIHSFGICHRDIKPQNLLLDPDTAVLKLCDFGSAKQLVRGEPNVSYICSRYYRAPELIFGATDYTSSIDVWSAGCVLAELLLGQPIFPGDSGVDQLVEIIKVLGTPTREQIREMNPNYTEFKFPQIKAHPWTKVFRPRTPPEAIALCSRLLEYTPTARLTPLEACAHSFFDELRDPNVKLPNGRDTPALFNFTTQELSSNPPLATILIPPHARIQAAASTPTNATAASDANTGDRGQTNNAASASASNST

[14] = biological target: T5, Serine/threonine-protein kinase Chk1 (Homo sapiens, UniProt O14757); assay: Inhibition of CHK1 (unknown origin)
T5 sequence (O14757 whole entry): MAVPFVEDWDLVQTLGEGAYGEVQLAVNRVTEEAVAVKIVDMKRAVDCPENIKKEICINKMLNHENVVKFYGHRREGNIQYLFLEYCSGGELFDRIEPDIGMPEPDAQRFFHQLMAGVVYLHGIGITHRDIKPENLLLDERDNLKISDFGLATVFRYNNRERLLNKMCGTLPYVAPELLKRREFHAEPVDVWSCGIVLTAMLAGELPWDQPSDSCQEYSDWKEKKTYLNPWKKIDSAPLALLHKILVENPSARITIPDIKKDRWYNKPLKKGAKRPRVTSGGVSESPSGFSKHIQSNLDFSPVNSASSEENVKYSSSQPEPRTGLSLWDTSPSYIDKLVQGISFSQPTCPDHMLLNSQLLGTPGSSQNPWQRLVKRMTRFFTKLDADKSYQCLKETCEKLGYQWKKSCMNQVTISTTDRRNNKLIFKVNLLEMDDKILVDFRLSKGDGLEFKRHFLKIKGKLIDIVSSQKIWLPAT

Chain of Mitogen-activated protein kinase 1 (P28482 whole entry): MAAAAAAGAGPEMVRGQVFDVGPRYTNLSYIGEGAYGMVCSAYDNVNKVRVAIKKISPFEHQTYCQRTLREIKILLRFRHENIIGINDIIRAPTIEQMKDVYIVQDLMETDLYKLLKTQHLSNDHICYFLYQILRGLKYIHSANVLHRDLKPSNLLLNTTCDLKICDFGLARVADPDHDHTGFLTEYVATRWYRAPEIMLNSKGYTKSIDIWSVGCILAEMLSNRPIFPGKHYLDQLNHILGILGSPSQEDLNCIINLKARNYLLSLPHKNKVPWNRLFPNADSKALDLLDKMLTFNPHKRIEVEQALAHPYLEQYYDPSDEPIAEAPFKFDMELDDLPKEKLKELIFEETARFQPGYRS

Row | pIC50 [1] | pEC50 (Aurora kinase B [2]) | pIC50 [3] | pIC50 [4] | pIC50 [6] | Papp A→B [7] | pIC50 (Aurora kinase A [8]) | pIC50 [9] | pIC50 [10] | pIC50 [12] | pIC50 [13] | pIC50 [14] | SMILES | pKd (Aurora kinase A [5]) | pKd (Aurora kinase B [11])
1 | < 6.30 | 6.93 | 7.85 | < 6.30 | < 6.30 | 2.8 ×10⁻⁶ cm/s | > 8.40 | < 6.30 | < 6.30 | 6.57 | < 6.30 | 6.44 | Cc1cn2c(-c3cn[nH]c3)cnc2c(Nc2cc(Cc3ccccn3)ns2)n1 | 11.00 | 10.00
2 | < 6.30 | 7.62 | 8.30 | < 6.30 | < 6.30 | 2.1 ×10⁻⁶ cm/s | > 8.40 | < 6.30 | < 6.30 | > 9.00 | < 6.30 | 7.89 | CCN(CCO)Cc1cc(Nc2nc(C)cn3c(-c4cn[nH]c4)cnc23)sn1 |  | 

Row | SMILES | pIC50 [1] | pEC50 (Aurora kinase B [2]) | pIC50 [3] | pIC50 [4] | pIC50 [6] | Papp A→B [7] | pIC50 (Aurora kinase A [8]) | pIC50 [9] | pIC50 [10] | pIC50 [12] | pIC50 [13] | pIC50 [14] | pKd (Aurora kinase A [5]) | pKd (Aurora kinase B [11])
3 | Cc1cn2c(-c3cn[nH]c3)cnc2c(Nc2cc(C(NC(C)(C)C)c3ccccn3)ns2)n1 (single isomer, unassigned; (+)) | < 6.00 | > 7.80 | 8.30 | < 6.00 | < 6.00 | 2.4 ×10⁻⁶ cm/s | ≥ 8.40 | < 6.00 | < 6.00 | 7.21 | < 6.00 | 8.15 | 11.00 | 11.00
